In patent publication US10202360B2 (CELGENE QUANTICEL RESEARCH, INC., priority 2016, dated 2019):
pIC50: −log10 of the molar value.

molecular target: CREBBP (Homo sapiens (Human), UniProt Q92793); assay: In vitro enzyme inhibition assay - CREBBP inhibition (AlphaScreen, biotinylated H4-tetraacetyl peptide); format: binding; conditions: Table 28; AlphaScreen, H4-tetraacetyl peptide
Method in brief: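 Displacement of 20 nM biotinylated tetraacetyl-H4 peptide from 50 nM E. coli-expressed His-CREBBP, measured by AlphaScreen after bead equilibration for 2 h.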

Sequence of CREBBP (Q92793 1081-1197): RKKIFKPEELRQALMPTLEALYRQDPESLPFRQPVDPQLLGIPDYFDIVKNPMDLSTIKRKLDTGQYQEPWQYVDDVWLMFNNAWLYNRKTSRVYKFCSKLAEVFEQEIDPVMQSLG

pIC50, > 6.30:
CC[C@H](C)S(=O)(=O)Nc1cc(-c2ccc(=O)n(C)c2)nc(Oc2c(C)cccc2Cl)n1 [Example 205, Butane-(2S)-sulfonic acid [2-(2-chloro-6-mehtyl-phenoxy)-6-(1-methyl-6-oxo-1,6-dihydro-pyridin-3-yl)-pyrimidin-4-yl]-amide]
CC[C@H](C)S(=O)(=O)Nc1cc(-c2ccc(=O)n(C)c2)nc(Oc2c(F)cccc2Cl)n1 [Example 206, Butane-(2S)-sulfonic acid [2-(2-chloro-6-fluoro-phenoxy)-6-(1-methyl-6-oxo-1,6-dihydro-pyridin-3-yl)-pyrimidin-4-yl]-amide]
CC[C@@H](C)S(=O)(=O)Nc1cc(-c2ccc(=O)n(C)c2)nc(Oc2c(F)cccc2Cl)n1 [Example 207, Butane-(2R)-sulfonic acid [2-(2-chloro-6-fluoro-phenoxy)-6-(1-methyl-6-oxo-1,6-dihydro-pyridin-3-yl)-pyrimidin-4-yl]-amide]
CC[C@@H](C)S(=O)(=O)Nc1cc(-c2ccc(=O)n(C)c2)nc(Oc2c(F)cccc2OC)n1 [Example 208, Butane-(2R)-sulfonic acid [2-(2-fluoro-6-methoxy-phenoxy)-6-(1-methyl-6-oxo-1,6-dihydro-pyridin-3-yl)-pyrimidin-4-yl]-amide]
CC[C@H](C)S(=O)(=O)Nc1cc(-c2ccc(=O)n(C)c2)nc(Oc2c(F)cccc2OC)n1 [Example 209, Butane-(2S)-sulfonic acid [2-(2-fluoro-6-methoxy-phenoxy)-6-(1-methyl-6-oxo-1,6-dihydro-pyridin-3-yl)-pyrimidin-4-yl]-amide]
CC[C@@H](C)S(=O)(=O)Nc1cc(-c2ccc(=O)n(C)c2)nc(Oc2c(F)cccc2C2CC2)n1 [Example 210, Butane-(2R)-sulfonic acid [2-(2-cyclopropyl-6-fluoro-phenoxy)-6-(1-methyl-6-oxo-1,6-dihydro-pyridin-3-yl)-pyrimidin-4-yl]-amide]
CC[C@H](C)S(=O)(=O)Nc1cc(-c2ccc(=O)n(C)c2)nc(Oc2c(C)cccc2C2CC2)n1 [Example 211, Butane-(2S)-sulfonic acid [2-(2-cylcopropyl-6-methyl-phenoxy)-6-(1-methyl-6-oxo-1,6-dihydro-pyridin-3-yl)-pyrimidin-4-yl]-amide]
CC[C@@H](C)S(=O)(=O)Nc1cc(-c2ccc(=O)n(C)c2)nc(Oc2c(C)ccc(F)c2F)n1 [Example 212, (2R)-Butane-2-sulfonic acid [2-(2,3-difluoro-6-methyl-phenoxy)-6-(1-methyl-6-oxo-1,6-dihydro-pyridin-3-yl)-pyrimidin-4-yl]-amide]
CC[C@H](C)S(=O)(=O)Nc1cc(-c2ccc(=O)n(C)c2)nc(Oc2c(C)ccc(F)c2F)n1 [Example 213, (2S)-Butane-2-sulfonic acid [2-(2,3-difluoro-6-methyl-phenoxy)-6-(1-methyl-6-oxo-1,6-dihydro-pyridin-3-yl)-pyrimidin-4-yl]-amide]
CCc1cccc(F)c1Oc1nc(NS(=O)(=O)[C@H](C)CC)cc(-c2ccc(=O)n(C)c2)n1 [Example 214, (2R)-Butane-2-sulfonic acid [2-(2-ethyl-6-fluoro-phenoxy)-6-(1-methyl-6-oxo-1,6-dihydro-pyridin-3-yl)-pyrimidin-4-yl]-amide]
CCc1cccc(F)c1Oc1nc(NS(=O)(=O)[C@@H](C)CC)cc(-c2ccc(=O)n(C)c2)n1 [Example 215, (2S)-Butane-2-sulfonic acid [2-(2-ethyl-6-fluoro-phenoxy)-6-(1-methyl-6-oxo-1,6-dihydro-pyridin-3-yl)-pyrimidin-4-yl]-amide]
CCC[C@H](C)S(=O)(=O)Nc1cc(-c2ccc(=O)n(C)c2)nc(Oc2c(C)cccc2F)n1 [Example 216, (2S)-Pentane-2-sulfonic acid [2-(2-fluoro-6-methyl-phenoxy)-6-(1-methyl-6-oxo-1,6-dihydro-pyridin-3-yl)-pyrimidin-4-yl]-amide]
CCC[C@H](C)S(=O)(=O)Nc1cc(-c2ccc(=O)n(C)c2)nc(Oc2c(C)cccc2Cl)n1 [Example 217, (2S)-Pentane-2-sulfonic acid [2-(2-chloro-6-methyl-phenoxy)-6-(1-methyl-6-oxo-1,6-dihydro-pyridin-3-yl)-pyrimidin-4-yl]-amide]
CCC[C@H](C)S(=O)(=O)Nc1cc(-c2ccc(=O)n(C)c2)nc(Oc2c(F)cccc2Cl)n1 [Example 218, (2S)-Pentane-2-sulfonic acid [2-(2-chloro-6-fluoro-phenoxy)-6-(1-methyl-6-oxo-1,6-dihydro-pyridin-3-yl)-pyrimidin-4-yl]-amide]
CCC[C@@H](C)S(=O)(=O)Nc1cc(-c2ccc(=O)n(C)c2)nc(Oc2c(C)cccc2F)n1 [Example 219, (2R)-Pentane-2-sulfonic acid [2-(2-fluoro-6-methyl-phenoxy)-6-(1-methyl-6-oxo-1,6-dihydro-pyridin-3-yl)-pyrimidin-4-yl]-amide]
CCC[C@@H](C)S(=O)(=O)Nc1cc(-c2ccc(=O)n(C)c2)nc(Oc2c(F)cccc2Cl)n1 [Example 220, (2R)-Pentane-2-sulfonic acid [2-(2-chloro-6-fluoro-phenoxy)-6-(1-methyl-6-oxo-1,6-dihydro-pyridin-3-yl)-pyrimidin-4-yl]-amide]
CCC[C@@H](C)S(=O)(=O)Nc1cc(-c2ccc(=O)n(C)c2)nc(Oc2c(C)cccc2Cl)n1 [Example 221, (2R)-Pentane-2-sulfonic acid [2-(2-chloro-6-methyl-phenoxy)-6-(1-methyl-6-oxo-1,6-dihydro-pyridin-3-yl)-pyrimidin-4-yl]-amide]
CC[C@H](C)S(=O)(=O)Nc1cc(-c2cc(C)c(=O)n(C)c2)nc(Oc2c(C)cccc2Cl)n1 [Example 222, (S)-N-(2-(2-chloro-6-methylphenoxy)-6-(1,5-dimethyl-6-oxo-1,6-dihydropyridin-3-yl)pyrimidin-4-yl)butane-2-sulfonamide]
CCC[C@H](C)S(=O)(=O)Nc1cc(-c2cc(C)c(=O)n(C)c2)nc(Oc2c(C)cccc2Cl)n1 [Example 223, (S)-N-(2-(2-chloro-6-methylphenoxy)-6-(1,5-dimethyl-6-oxo-1,6-dihydropyridin-3-yl)pyrimidin-4-yl)pentane-2-sulfonamide]
CC[C@H](C)S(=O)(=O)Nc1cc(-c2ccc(=O)n(C)c2)nc(Oc2c(F)ccc(C)c2Cl)n1 [Example 224, (2S)-Butane-2-sulfonic acid [2-(2-chloro-6-fluoro-3-methyl-phenoxy)-6-(1-methyl-6-oxo-1,6-dihydro-pyridin-3-yl)-pyrimidin-4 yl]-amide]
CC[C@H](C)S(=O)(=O)Nc1cc(-c2ccc(=O)n(C)c2)nc(Oc2c(F)ccc(C)c2F)n1 [Example 225, (S)-N-(2-(2,6-difluoro-3-methylphenoxy)-6-(1-methyl-6-oxo-1,6-dihydropyridin-3-yl)pyrimidin-4-yl)butane-2-sulfonamide]
CC[C@H](C)S(=O)(=O)Nc1cc(-c2ccc(=O)n(C)c2)nc(Oc2c(Cl)ccc(C)c2F)n1 [Example 226, (S)-Butane-2-sulfonic acid [2-(6-chloro-2-fluoro-3-methyl-phenoxy)-6-(1-methyl-6-oxo-1,6-dihydro-pyridin-3-yl)-pyrimidin-4-yl]-amide]
CCC[C@H](C)S(=O)(=O)Nc1cc(-c2ccc(=O)n(C)c2)nc(Oc2c(Cl)ccc(C)c2F)n1 [Example 227, (2S)-Pentane-2-sulfonic acid [2-(6-chloro-2-fluoro-3-methyl-phenoxy)-6-(1-methyl-6-oxo-1,6-dihydro-pyridin-3-yl)-pyrimidin-4-yl]-amide]
CCC[C@H](C)S(=O)(=O)Nc1cc(-c2ccc(=O)n(C)c2)nc(Oc2c(F)ccc(C)c2Cl)n1 [Example 228, (2S)-Pentane-2-sulfonic acid [2-(2-chloro-6-fluoro-3-methyl-phenoxy)-6-(1-methyl-6-oxo-1,6-dihydro-pyridin-3-yl)-pyrimidin-4-yl]-amide]
CC[C@H](C)S(=O)(=O)Nc1cc(-c2ccc(=O)n(C)c2)nc(Oc2c(F)cccc2F)n1 [Example 229, (S)-N-(2-(2,6-difluorophenoxy)-6-(1-methyl-6-oxo-1,6-dihydropyridin-3-yl)pyrimidin-4-yl)butane-2-sulfonamide]
CC[C@@H](C)S(=O)(=O)Nc1cc(-c2ccc(=O)n(C)c2)nc(Oc2c(F)cccc2F)n1 [Example 230, (R)-N-(2-(2,6-difluorophenoxy)-6-(1-methyl-6-oxo-1,6-dihydropyridin-3-yl)pyrimidin-4-yl)butane-2-sulfonamide]
Cn1cc(-c2cc(NS(=O)(=O)CCC(F)(F)F)nc(Oc3c(F)cccc3Cl)n2)ccc1=O [Example 231, 3,3,3-Trifluoro-propane-1-sulfonic acid [2-(2-chloro-6-fluoro-phenoxy)-6-(1-methyl-6-oxo-1,6-dihydro-pyridin-3-yl)-pyrimidin-4-yl]-amide]
Cn1cc(-c2cc(NS(=O)(=O)CCCC(F)(F)F)nc(Oc3c(F)cccc3Cl)n2)ccc1=O [Example 232, 4,4,4-Trifluoro-butane-1-sulfonic acid [2-(2-chloro-6-fluoro-phenoxy)-6-(1-methyl-6-oxo-1,6-dihydro-pyridin-3-yl)-pyrimidin-4-yl]-amide]
CCCCS(=O)(=O)Nc1cc(-c2ccc(=O)n(C)c2)nc(Oc2c(F)cccc2OC)n1 [Example 233, Butane-1-sulfonic acid [2-(2-fluoro-6-methoxy-phenoxy)-6-(1-methyl-6-oxo-1,6-dihydro-pyridin-3-yl)-pyrimidin-4-yl]-amide]
